Measured values: BindingDB's records for doi:10.1124/jpet.105.083436 (Louisiana State University, 2005)

Target: Nociceptin receptor (Homo sapiens, UniProt P41146)
Sequence (P41146 whole entry): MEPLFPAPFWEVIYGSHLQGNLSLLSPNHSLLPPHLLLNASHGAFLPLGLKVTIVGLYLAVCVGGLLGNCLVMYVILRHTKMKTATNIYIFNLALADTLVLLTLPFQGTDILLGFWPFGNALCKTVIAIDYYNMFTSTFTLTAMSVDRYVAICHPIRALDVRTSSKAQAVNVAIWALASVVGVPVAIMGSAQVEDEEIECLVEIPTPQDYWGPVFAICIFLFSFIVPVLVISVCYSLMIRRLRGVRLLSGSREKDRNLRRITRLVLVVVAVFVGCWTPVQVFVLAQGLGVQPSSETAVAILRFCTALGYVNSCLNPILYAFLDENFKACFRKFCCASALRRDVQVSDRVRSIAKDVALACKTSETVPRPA

Ac-RYYRWKKKKKKK-NH2
Ki: 0.5 nM
